Reference: patent US8071321B2, “Methods for up-regulating antigen expression in tumors” (CytoCure LLC, priority 2002, dated 2011)

Legend:
[1] = test system: gp100 antigen in MU-X melanoma cells; assay: Flow cytometric analysis of gp100 (HMB) staining in MU-X low antigen-expressing cells; assay type: cell-based, human
Procedure: (§1) Determination of protein Antigen in Tumor Cells via Flow Cytometric Analysis: To evaluate expression of cytoplasmic Melan-A/MART-1 antigen in melanoma tumor cell lines, cells were first fixed for 10′ in 1% paraformaldehyde; the cells are pelleted and incubated for 5′ in 0.1% saponin prior to washing and addition of monoclonal antibody specific for Melan-A/MART-1, A-103 (Ramirez-Montagut, et al., supra) for 45′ at 22° C. Following two washes, the cells were stained for 30′ with FITC-conjugated goat-anti-mouse Ig antibody (DAKO, Carpenteria, Calif.) prior to fixation in 1% paraformaldehyde and analysis by flow cytometry (FACScan, Becton-Dickinson, Mt. View, Calif.). Histograms of fluorescence staining were generated for comparison of anti-Melan-A/MART-1 staining of various cell populations. Mean channel fluorescence was calculated using the “LYSIS” software provided by the manufacturer. Gp100 expression was determined similarly using the HMB45 monoclonal antibody.

[2] = test system: Melan-A/MART-1 in MITF-M transfected A375 tumor cells; conditions: 24 hours, U0126 10 μM (FIG. 6)
Procedure: (§2) Primers were designed from appropriate GenBank mRNA and genomic entries and designed to be intron-spanning to prevent simultaneous amplification of traces of genomic DNAs. Where this was not possible RNAs were treated with RNase-free DNase I and repurified.
(§3) To express MITF-M in cell lines expressing low levels of Melan-A/MART-1, MITF-M coding sequence was amplified from MITF-M-positive cells and cloned in an SV40-promoter expression vector (pSV21ink); translation of the MITF-M insert uses optimal Kozak initiation signals (Kozak (1999). Gene 234:187). Constructs were transfected into low-Melan-A/MART-1 expressor melanoma (MU-X and A375). In all studies controls comprised empty vector, transfection reagents in the absence of added DNA, and corresponding untransfected cells. Data shown in FIG. 6 for A375 and MU-X tumor cells transfected with MITF-M for 24 hours in the presence (10 μM) or absence of U0126 before PCR amplification of Melan-A/MART-1.

[3] = test system: Melan-A/MART-1 in MITF-M transfected MU-X tumor cells; conditions: 24 hours, U0126 10 μM (FIG. 6)
Procedure: as §2, §3

[4] = test system: gp100 antigen in MU-89 melanoma cells; assay: Flow cytometric analysis of gp100 (HMB45 staining) in MU-89 cells; assay type: cell-based, human; conditions: HMB 45 staining, control MU-89 41.6
Procedure: as §1

[5] = test system: melanocyte-related genes in MU-89 cells; assay: RT-PCR of melanoma gene expression in MU-89 cells; assay type: cell-based, human; conditions: MU-89 cells (FIG. 5)

`Nc1ncn([C@H]2C[C@H](O)[C@@H](CO)O2)c(=O)n1` [5 azadeoxycytidine] was tested, and the “effect on interferon-beta induced gp100 expression” value ([1]; gp100 (HMB) staining (FIG. 4)) was “augmented”.

In the case of `Nc1ncn([C@@H]2O[C@H](CO)[C@@H](O)[C@H]2O)c(=O)n1` [5-AZA, 5-azacytidine], the “gp100 mean channel fluorescence” value ([1]; MU-X cells, 5-AZA 40uM, MU-X control 12.8) is reported as 39.0.

With `N#CC(=C(/N)Sc1ccccc1N)/C(C#N)=C(\N)Sc1ccccc1N` [U0126] the Melan-A/MART-1 expression [2] was “augmented enhancement” and the Melan-A/MART-1 expression [3] was “augmented enhancement”.

B1: OSM: Recombinant human oncostatin M (rhOSM) from R&D Systems (protein, UniProt P13725 26-221, looked up)
Oncostatin-M: AAIGSCSKEYRVLLGQLQKQTDLMQDTSRLLDPYIRIQGLDVPKLREHCRERPGAFPSEETLRGLGRRGFLQTLNATLGCVLHRLADLEQRLPKAQDLERSGLNIEDLEKLQMARPNILGLRNNIYCMAQLLDNSDTAEPTKAGRGASQPPTPTPASDAFQRKLEGCRFLHGYHRFMHSVGRVFSKWGESPNRSRR
With B1 the “gp100 mean channel fluorescence” value [4] was 29.5, the MITF-A isoform expression [5] was “not detectably responsive” and the MITF-M expression [5] was “down-modulates”. The “expression of Melan-A/MART-1, tyrosinase, gp100, TRP-1 and TRP-2 genes” value [5] was “induces down-modulation”.
